Assay results as given in article PMC8857485, “Prostate secretory protein 94 inhibits sterol binding and export by the mammalian CAP protein CRISP2 in a calcium-sensitive manner” (The Journal of Biological Chemistry, 2022).
Structures can show the parent of a compound that is named as a salt. Where two headings read alike, the source gives them in different places.

Key:
[1] = molecular target: T1, CRISP2 L98G (Homo sapiens, UniProt P16562, L98G); assay: MST binding to CRISP2 single mutant L98G; design: species or system mammalian; conditions: absence of PSP94, read-out: Kd, sterol binding by CRISP2 L98G
T1 construct: made in house; host or cells: E. coli
Excerpt: This interaction is thus located outside the hydrophobic loop that harbors the sterol-binding CBM. Based on these structural considerations, it is thus not apparent why and how the interaction between PSP94 and CRISP2 would block sterol binding at the CBM. To investigate this question in more detail, we first performed computational docking studies to identify residues in CRISP2 that are critical for the interaction with PSP94. […] Two of these three interacting residues, N97 and L98, are conserved in all three CAP family members tested here, CRISP2, CRISP3, and Pry1 (Fig. 4A). […]
(§1) MST experiments were performed to assess protein–protein, protein–lipid, and protein–calcium interactions using a Monolith NT.115 (Nanotemper Technologies). […] The dissociation constant Kd was obtained by plotting the normalized fluorescence (Fnorm) against the logarithm of ligand concentration. […]
Quadruple mutant cells lacking the acyl-CoA synthetases FAA1 and FAA4 and the yeast CAP family members PRY1 and PRY3 (faa1∆ faa4∆ pry1∆ pry3∆) expressing different combinations of plasmid-borne copies of PRY1, CRISP2, and or PSP94, or their respective empty vectors (pRS423 or pRS426) were cultivated overnight. The export of fatty acids into the culture medium was then quantified. […]

[2] = molecular target: T2, CRISP2 (Homo sapiens, UniProt P16562); assay: MST binding to CRISP2; design: species or system mammalian
T2 construct: made in house; host or cells: E. coli BL21
T2 sequence (P16562 22-243): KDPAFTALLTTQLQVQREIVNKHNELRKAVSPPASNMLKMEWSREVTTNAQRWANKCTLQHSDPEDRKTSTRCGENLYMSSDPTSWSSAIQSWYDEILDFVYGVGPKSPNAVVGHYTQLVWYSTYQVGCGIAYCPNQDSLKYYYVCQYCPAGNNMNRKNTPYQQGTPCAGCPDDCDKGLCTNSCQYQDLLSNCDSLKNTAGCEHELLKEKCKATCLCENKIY
Excerpt: To confirm the direct interaction of PSP94 with CRISP3 and to test whether PSP94 would also bind other CAP family members such as yeast Pry1, or CRISP2, we performed in vitro protein binding assay using microscale thermophoresis (MST). Therefore, PSP94 and the CAP family members, Pry1, CRISP2, and CRISP3, were expressed as fusion proteins with a C-terminal polyhistidine tag in Escherichia coli, and the proteins were affinity purified on nickel-NTA agarose beads. The purified CAP proteins were then fluorescently labeled using RED-tris-NTA and incubated with varying concentrations of PSP94. […] PSP94 thus has high binding affinity for all three CAP proteins tested, and it also binds the CAP domain of Pry1 (Pry1^CAP) alone.
DNA encoding proteins of interest were PCR amplified and cloned into NcoI and XhoI restriction sites of pET22b, which contains a PelB signal sequence to direct the secretion of expressed protein into the periplasmic space. Plasmids were transformed into E. coli BL21, and proteins were expressed with a C-terminal polyhistidine tag. Different induction strategies were used: overnight induction with lactose at 24 °C for Pry1, CRISP2, and PSP94 and 6 h of induction with 0.4 mM IPTG at 24 °C for the CAP domain of Pry1. Cells were collected and lysed, and the soluble cell lysate was incubated with nickel-nitrilotriacetic acid beads as per the manufacturer instructions (Qiagen). Beads were washed and loaded onto a Ni^2+-NTA column, and proteins were eluted with a buffer containing 60 mM NaH2PO4, 300 mM NaCl, and 300 mM imidazole, pH 8.0. […] Protein concentration was determined by Lowry assay using the Folin reagent and bovine serum albumin as protein standard.
as §1

T1 sequence (P16562 22-243 L98G): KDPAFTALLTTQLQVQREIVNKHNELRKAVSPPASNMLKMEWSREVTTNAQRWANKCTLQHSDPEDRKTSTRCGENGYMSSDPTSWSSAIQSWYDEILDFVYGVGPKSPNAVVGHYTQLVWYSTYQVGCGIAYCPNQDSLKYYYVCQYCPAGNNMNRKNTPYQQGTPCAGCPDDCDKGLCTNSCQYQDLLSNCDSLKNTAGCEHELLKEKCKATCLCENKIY

SMILES: CC(C)CCC[C@@H](C)[C@H]1CC[C@H]2[C@@H]3CC=C4C[C@@H](OS(=O)(=O)O)CC[C@]4(C)[C@H]3CC[C@]12C [cholesterol sulfate]
- Kd [1]: 95 ± 2.1 µM
- Kd ([2]; PSP94^F24G preincubated 5 min at 24 °C, read-out: Kd, sterol binding by CRISP2 in presence of PSP94^F24G): 9.7 ± 3.04 µM
- Kd ([2]; absence of PSP94, read-out: Kd, sterol binding by CRISP2): 1.6 ± 0.9 µM
